Drawing on article PMC12528650, “The CsMYB36-CsSWEET17 module mediates the calcium-induced sucrose accumulation in citrus” (Horticulture Research, 2025), this text covers Km for one compound.

This experiment addresses T1, CsSWEET17 (Citrus sinensis, UniProt A0ACB8I933).
T1 construct: gene KPL71_027705; full-length CDS (705 bp, about 235 residues) in pDR196, expressed in Saccharomyces cerevisiae CSY4000 (W303 for esculin); seven TMs
Kind of experiment: […]-sucrose uptake in CSY4000 yeast, nonlinear Michaelis-Menten fit. The experiment is classed as cell-based. As to conditions: pH 5.5; 30 °C; proton-coupled transport; labelled compound.

T1 sequence (A0ACB8I933 entry or part of it): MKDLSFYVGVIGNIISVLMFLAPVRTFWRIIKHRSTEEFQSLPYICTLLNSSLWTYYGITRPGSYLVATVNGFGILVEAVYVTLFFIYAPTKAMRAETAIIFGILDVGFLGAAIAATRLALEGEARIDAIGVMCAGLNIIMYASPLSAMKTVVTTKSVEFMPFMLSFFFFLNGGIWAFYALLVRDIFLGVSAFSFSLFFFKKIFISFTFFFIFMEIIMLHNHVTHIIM

Regarding `OC[C@H]1O[C@@](CO)(O[C@H]2O[C@H](CO)[C@@H](O)[C@H](O)[C@H]2O)[C@@H](O)[C@@H]1O` [sucrose], the Km – broadly, the concentration of substrate that gives half-maximal velocity – came to 291 µM.
